Laboratory results as given in patent US20100075907A1, “NEUROMEDIN U RECEPTOR AGONISTS AND USES THEREOF” (priority 2006, published 2010).
pEC50: −log10 of the molar value. Starred links: 1 amine or outer side, 2 acyl side, 3 side chain; linkers in the order of their positions; H or OH if unused. Residues, ends and D or L forms follow the SMILES beside them. No end group written: not given here. *: point of attachment. X1 = CC(C)CCC[C@@H](C)[C@H]1CC[C@H]2[C@@H]3CC=C4C[C@@H](OC(=O)C*)CC[C@]4(C)[C@H]3CC[C@]12C; X2 = CCN1C(=O)CC(SC[C@H](NC(C)=O)C(=O)NCCCOCCOCCOCCCN*)C1=O; Succinimide(1-Et,3-yl) = CCN1C(=O)CC(*)C1=O; Palmitoyl = CCCCCCCCCCCCCCCC(=O)*; Suc = O=C(CCC(=O)[*:2])[*:1]

Each compound was assayed against mouse NMUR2 (Mus musculus, UniProt Q8BZ39) (assay: FLIPR calcium mobilization assay, mouse NMUR2). Conditions: FLIPR, mouse NMUR2.
Type: cell-based
Design: expressed in transfected cells; host or cells: FLP-In CHO or HEK-293 FLP-In cells (pcDNA5)
Source text: Human, mouse or rat cDNAs encoding NMUR1 or NMUR2 (as described in Howard et al. Nature 406: 70-74 (2000) were subcloned in pcDNA5 (Invitrogen) and transfected into FLP-In CHO cells and HEK-293 FLP-In cells purchased from Invitrogen (Carlsbad, Calif.) using lipofectamine (Invitrogen). The Flp-In system allows integration and expression of a particular gene of interest at a specific genomic location utilizing the Flp recombinase from yeast. The transfected cells were selected by growth in medium containing 200 μg/mL hygromycin (Invitrogen). Populations were frozen at early passage numbers, and these stocks were used for further studies. Stable clones that expressed the mRNAs were identified functionally by FLIPR as well as by RT-PCR. […] Two different rodent NMUR1 cell lines were thus generated: one with the codon as predicted from the genomic databases and another cell line with an engineered methionine (ATG) as the start codon. Additionally, stable cell lines expressing the human receptors were generated in HEK-293/aeq17 cells which stably express the aequorin gene under the CMV promoter. The human NMUR2 cDNA was cloned into pcDNA3.1 and human NMUR1 was subcloned into pIRES-puro (Clontech, Mountain View, Calif.), after transfection cells were selected in media containing G418 and either hygromycin (NMUR2) or puromycin (NMUR1).
The NMU receptors signal primarily through Gαq/11 proteins; therefore calcium mobilization assays can be utilized for functional activity.
Stable cell lines expressing human and or rodent NMUR1 or human NMUR2 receptors were plated at a density of 12,000 cells per well overnight on poly-lysine coated 384-well black-walled plates. The following day, the media was removed from the plates and the cells were subsequently loaded with Fluo-3 (Molecular Probes), a calcium sensitive dye, diluted in FLIPR buffer (1× Hank's buffered saline containing 20 mM HEPES, 0.1% BSA, 2.5 mM probenecid (Sigma) and 1.6 mM TR40). All reagents are from Invitrogen unless otherwise noted. Peptide stocks were resuspended in DMSO at a stock concentration of 2 mM and diluted in FLIPR buffer on the day of the experiment to a 4 μM working stock solution.
After a 90 minute incubation at room-temperature, cell plates were loaded onto a FLIPR (Molecular Devices) to monitor cellular fluorescence (excitation=488 nm; emission=540 nm) before and after compound/peptide addition. Eight to twelve point dose responses were tested on NMUR-expressing cell lines using FLIPR with 1 μM peptide as the highest dose. The response after peptide addition was taken as the maximum fluorescence units minus the fluorescence immediately prior to stimulation for each well. EC50 values were calculated using GraphPad Prism (San Diego, Calif.) software.
In vitro responses of Neuromedin U receptor agonists (NMU1 to NMU25) in the FLIPR assay for human (Table 3), mouse (Table 4) and rat (Table 5) NMUR1 and NMUR2. EC50s are reported in nM values. Percent activity refers to the maximum response at 1 μM compared to the hNMU-25 response at the same concentration. NT=not tested.

Chain of mouse NMUR2 (Q8BZ39 whole entry): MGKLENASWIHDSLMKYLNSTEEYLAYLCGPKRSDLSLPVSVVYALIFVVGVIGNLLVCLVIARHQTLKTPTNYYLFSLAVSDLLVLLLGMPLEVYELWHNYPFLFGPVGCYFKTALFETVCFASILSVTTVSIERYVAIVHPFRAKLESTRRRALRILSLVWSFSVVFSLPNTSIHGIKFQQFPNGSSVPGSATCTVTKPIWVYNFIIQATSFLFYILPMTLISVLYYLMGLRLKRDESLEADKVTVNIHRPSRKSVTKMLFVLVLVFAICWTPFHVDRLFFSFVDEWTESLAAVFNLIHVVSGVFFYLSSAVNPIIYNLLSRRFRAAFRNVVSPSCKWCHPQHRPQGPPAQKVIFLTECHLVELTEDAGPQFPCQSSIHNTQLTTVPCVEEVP

Compound	pEC50
H-FRVDEEFQSPFASQSRPYFLFRPRN-NH2 [NMU4]	8.92
Pam-C2FRVDEEFQSPFASQSRGYFLFRPRN-CONH2 ({Palmitoyl-C(PEG 40 kDa)}-FRVDEEFQSPFASQSRGYFLFRPRN-NH2) [NMU25, Pam = palmitoyl; C2 = Cys(PEG)240 kDa]	7.73
Ac-FRVDEEFQSPFASQSRGYFLFRPRN-NH2 [NMU2]	8.92
Ac-C2FQSPFASQSRGYFLFRPRN-CONH2 ({Ac-C(PEG 40 kDa)}-FQSPFASQSRGYFLFRPRN-NH2; not fully specified; printed as Ac-C2FQSPFASQSRGYFLFRPRN-CONH2) [NMU20, C2 = Cys(PEG)240 kDa]	7.83

Second part, the compound after the results:

pEC50	Compound
7.67	Ac-C4-C4-FRVDEEFQSPFASQSRGYFLFRPRN-CONH2 ({Ac-C(PEG 20 kDa)-C(PEG 20 kDa)}-FRVDEEFQSPFASQSRGYFLFRPRN-NH2) [NMU23, C4 = Cys(PEG)20 kDa]
9.00	Ac-FRVDEEFQSPFASQSRPYFLFRPRN-NH2 [NMU5]
7.72	Ac-C2FRVDEEFQSPFASQSRGYFLFRPRN-CONH2 [NMU9] ({Ac-C(PEG 40 kDa)}-FRVDEEFQSPFASQSRGYFLFRPRN-NH2) [C2 = Cys(PEG)240 kDa from Nektar (mPEG2-MAL-40 k)]

Same assay, conditions: maximum response at 1 μM compared to hNMU-25; mouse NMUR2

Compound	% Activity [%]
CCN1C(=O)CC(SC[C@H](NC(C)=O)C(=O)N[C@@H](Cc2ccccc2)C(=O)N[C@@H](CCCNC(=N)N)C(=O)N[C@H](C(=O)N[C@@H](CC(=O)O)C(=O)N[C@@H](CCC(=O)O)C(=O)N[C@@H](CCC(=O)O)C(=O)N[C@@H](Cc2ccccc2)C(=O)N[C@@H](CCC(N)=O)C(=O)N[C@@H](CO)C(=O)N2CCC[C@H]2C(=O)N[C@@H](Cc2ccccc2)C(=O)N[C@@H](C)C(=O)N[C@@H](CO)C(=O)N[C@@H](CCC(N)=O)C(=O)N[C@@H](CO)C(=O)N[C@@H](CCCNC(=N)N)C(=O)NCC(=O)N[C@@H](Cc2ccc(O)cc2)C(=O)N[C@@H](Cc2ccccc2)C(=O)N[C@@H](CC(C)C)C(=O)N[C@@H](Cc2ccccc2)C(=O)N[C@@H](CCCNC(=N)N)C(=O)N2CCC[C@H]2C(=O)N[C@@H](CCCNC(=N)N)C(=O)N[C@@H](CC(N)=O)C(N)=O)C(C)C)C1=O (stereo partly shown) [NMU8] (Ac-C(Succinimide(1-Et,3-yl))FRVDEEFQSPFASQSRGYFLFRPRN-NH2)	100
H-FRVDEEFQSPFASQSRPYFLFRPRN-NH2 [NMU4]	100
Ac-FRVDEEFQSPFASQSRGYFLFRPRN-NH2 [NMU2]	100
CC(=O)N[C@@H](CSCC(=O)O[C@H]1CC[C@@]2(C)C(=CC[C@H]3[C@@H]4CC[C@H]([C@H](C)CCCC(C)C)[C@@]4(C)CC[C@@H]32)C1)C(=O)NCC(=O)N[C@@H](Cc1ccc(O)cc1)C(=O)N[C@@H](Cc1ccccc1)C(=O)N[C@@H](CC(C)C)C(=O)N[C@@H](Cc1ccccc1)C(=O)N[C@@H](CCCNC(=N)N)C(=O)N1CCC[C@H]1C(=O)N[C@@H](CCCNC(=N)N)C(=O)N[C@@H](CC(N)=O)C(N)=O [NMU11] (Ac-C(X1)GYFLFRPRN-NH2)	70.5
GYFLFRPRN-NH2 [NMU3]	100
CCN1C(=O)CC(SC[C@H](NC(C)=O)C(=O)N[C@@H](CSC2CC(=O)N(CC)C2=O)C(=O)N[C@@H](Cc2ccccc2)C(=O)N[C@@H](CCCNC(=N)N)C(=O)N[C@H](C(=O)N[C@@H](CC(=O)O)C(=O)N[C@@H](CCC(=O)O)C(=O)N[C@@H](CCC(=O)O)C(=O)N[C@@H](Cc2ccccc2)C(=O)N[C@@H](CCC(N)=O)C(=O)N[C@@H](CO)C(=O)N2CCC[C@H]2C(=O)N[C@@H](Cc2ccccc2)C(=O)N[C@@H](C)C(=O)N[C@@H](CO)C(=O)N[C@@H](CCC(N)=O)C(=O)N[C@@H](CO)C(=O)N[C@@H](CCCNC(=N)N)C(=O)NCC(=O)N[C@@H](Cc2ccc(O)cc2)C(=O)N[C@@H](Cc2ccccc2)C(=O)N[C@@H](CC(C)C)C(=O)N[C@@H](Cc2ccccc2)C(=O)N[C@@H](CCCNC(=N)N)C(=O)N2CCC[C@H]2C(=O)N[C@@H](CCCNC(=N)N)C(=O)N[C@@H](CC(N)=O)C(N)=O)C(C)C)C1=O (stereo partly shown) [NMU22] (Ac-C(Succinimide(1-Et,3-yl))C(Succinimide(1-Et,3-yl))FRVDEEFQSPFASQSRGYFLFRPRN-NH2)	100
CCN1C(=O)CC(SC[C@H](NC(C)=O)C(=O)N[C@@H](Cc2ccccc2)C(=O)N[C@@H](CCC(N)=O)C(=O)N[C@@H](CO)C(=O)N2CCC[C@H]2C(=O)N[C@@H](Cc2ccccc2)C(=O)N[C@@H](C)C(=O)N[C@@H](CO)C(=O)N[C@@H](CCC(N)=O)C(=O)N[C@@H](CO)C(=O)N[C@@H](CCCNC(=N)N)C(=O)NCC(=O)N[C@@H](Cc2ccc(O)cc2)C(=O)N[C@@H](Cc2ccccc2)C(=O)N[C@@H](CC(C)C)C(=O)N[C@@H](Cc2ccccc2)C(=O)N[C@@H](CCCNC(=N)N)C(=O)N2CCC[C@H]2C(=O)N[C@@H](CCCNC(=N)N)C(=O)N[C@@H](CC(N)=O)C(N)=O)C1=O (stereo partly shown) [NMU19] (Ac-C(Succinimide(1-Et,3-yl))FQSPFASQSRGYFLFRPRN-NH2)	100

Second part, the compound after the results:

% Activity [%]	Compound
100	Ac-FRVDEEFQSPFASQSRPYFLFRPRN-NH2 [NMU5]
82.4	CCCCCCCCCCCCCCCC(=O)N[C@@H](CSC1CC(=O)N(CC)C1=O)C(=O)N[C@@H](Cc1ccccc1)C(=O)N[C@@H](CCCNC(=N)N)C(=O)N[C@H](C(=O)N[C@@H](CC(=O)O)C(=O)N[C@@H](CCC(=O)O)C(=O)N[C@@H](CCC(=O)O)C(=O)N[C@@H](Cc1ccccc1)C(=O)N[C@@H](CCC(N)=O)C(=O)N[C@@H](CO)C(=O)N1CCC[C@H]1C(=O)N[C@@H](Cc1ccccc1)C(=O)N[C@@H](C)C(=O)N[C@@H](CO)C(=O)N[C@@H](CCC(N)=O)C(=O)N[C@@H](CO)C(=O)N[C@@H](CCCNC(=N)N)C(=O)NCC(=O)N[C@@H](Cc1ccc(O)cc1)C(=O)N[C@@H](Cc1ccccc1)C(=O)N[C@@H](CC(C)C)C(=O)N[C@@H](Cc1ccccc1)C(=O)N[C@@H](CCCNC(=N)N)C(=O)N1CCC[C@H]1C(=O)N[C@@H](CCCNC(=N)N)C(=O)N[C@@H](CC(N)=O)C(N)=O)C(C)C (stereo partly shown) [NMU24] (Palmitoyl-C(Succinimide(1-Et,3-yl))FRVDEEFQSPFASQSRGYFLFRPRN-NH2)
100	CCN1C(=O)CC(SC[C@H](NC(C)=O)C(=O)N[C@@H](C)C(=O)N[C@@H](CO)C(=O)N[C@@H](CCC(N)=O)C(=O)N[C@@H](CO)C(=O)N[C@@H](CCCNC(=N)N)C(=O)NCC(=O)N[C@@H](Cc2ccc(O)cc2)C(=O)N[C@@H](Cc2ccccc2)C(=O)N[C@@H](CC(C)C)C(=O)N[C@@H](Cc2ccccc2)C(=O)N[C@@H](CCCNC(=N)N)C(=O)N2CCC[C@H]2C(=O)N[C@@H](CCCNC(=N)N)C(=O)N[C@@H](CC(N)=O)C(N)=O)C1=O (stereo partly shown) [NMU17] (Ac-C(Succinimide(1-Et,3-yl))ASQSRGYFLFRPRN-NH2)
100	CCN1C(=O)CC(SC[C@H](NC(C)=O)C(=O)NCCCOCCOCCOCCCNC(=O)CCC(=O)N[C@@H](Cc2ccccc2)C(=O)N[C@@H](CC(C)C)C(=O)N[C@@H](Cc2ccccc2)C(=O)N[C@@H](CCCNC(=N)N)C(=O)N2CCC[C@H]2C(=O)N[C@@H](CCCNC(=N)N)C(=O)N[C@@H](CC(N)=O)C(N)=O)C1=O (stereo partly shown) [NMU15, Ac-C1-Ttds-FLFRPRN-CONH2] ({X2-Suc}-FLFRPRN-NH2)
100	CCN1C(=O)CC(SC[C@H](NC(C)=O)C(=O)NCC(=O)N[C@@H](Cc2ccc(O)cc2)C(=O)N[C@@H](Cc2ccccc2)C(=O)N[C@@H](CC(C)C)C(=O)N[C@@H](Cc2ccccc2)C(=O)N[C@@H](CCCNC(=N)N)C(=O)N2CCC[C@H]2C(=O)N[C@@H](CCCNC(=N)N)C(=O)N[C@@H](CC(N)=O)C(N)=O)C1=O (stereo partly shown) [NMU6] (Ac-C(Succinimide(1-Et,3-yl))GYFLFRPRN-NH2)
